Measurements: US20240016942A1, “STAT DEGRADERS AND USES THEREOF” (Kymera Therapeutics, Inc., priority 2020, published 2024)

What follows are molecules tested against T1, STAT3 (Homo sapiens, UniProt P40763) (assay: STAT3 HiBiT degradation assay (Nano-Glo HiBiT lytic detection) in transfected A549 cells). Conditions: 24 h compound incubation, read-out: STAT3 HiBIT A549 degradation 24 h: Average external-Abs DC50.
T1 construct: expressed in transfected cells; host or cells: A549
T1 sequence (P40763 whole entry): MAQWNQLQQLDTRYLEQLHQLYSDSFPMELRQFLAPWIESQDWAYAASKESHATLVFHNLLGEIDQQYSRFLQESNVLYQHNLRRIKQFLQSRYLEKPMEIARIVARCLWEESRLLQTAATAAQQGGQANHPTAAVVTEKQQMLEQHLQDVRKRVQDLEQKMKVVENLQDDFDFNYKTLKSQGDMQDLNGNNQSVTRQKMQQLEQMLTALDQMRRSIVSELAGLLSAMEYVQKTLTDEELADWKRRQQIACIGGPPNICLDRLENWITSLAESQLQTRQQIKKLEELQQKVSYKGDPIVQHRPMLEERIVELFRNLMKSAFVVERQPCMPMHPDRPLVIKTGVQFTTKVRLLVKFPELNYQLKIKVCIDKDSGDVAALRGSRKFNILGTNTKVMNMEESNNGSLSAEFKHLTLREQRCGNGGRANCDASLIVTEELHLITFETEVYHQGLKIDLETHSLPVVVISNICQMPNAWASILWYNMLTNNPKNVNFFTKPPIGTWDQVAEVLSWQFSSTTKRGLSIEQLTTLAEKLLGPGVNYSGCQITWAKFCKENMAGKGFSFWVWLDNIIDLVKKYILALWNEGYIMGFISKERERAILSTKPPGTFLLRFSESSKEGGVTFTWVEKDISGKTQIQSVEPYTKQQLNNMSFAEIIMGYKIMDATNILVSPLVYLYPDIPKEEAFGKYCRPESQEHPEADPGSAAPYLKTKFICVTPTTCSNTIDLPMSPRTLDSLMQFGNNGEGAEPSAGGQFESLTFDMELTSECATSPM
Type: cell-based
Method: Example 1. HiBiT Assay Protocol
Compound preparation and Cell seeding: The transfected A549 cells were harvested from dish into cell culture medium and cell numbers counted. Cells were diluted with culture medium to the desired density and 30 μL of cell suspension (about 2000 cells/well) were added into each well of a 384-well cell culture plate as designated and transferred into 37° C. 5% CO2 incubator for 24 h. Compounds were dissolved to 10 mM stock solution and 12 μL of the stock solution was transferred to a 384 LDV-plate. 3 fold, 10-point dilution was performed by transferring 4 μL compound into 8 μL DMSO using a TECAN (EVO200) liquid handler. 30 μl of diluted compound from compound source plate was transferred into the cell plate as designated by using Echo550 and transferred into 37° C. 5% CO2 incubator for 24 h.
Detection: Plates were removed from incubators and equilibrated at room temperature for 15 minutes. Nano-Glo Hibit Lytic Detection reagent (Promega Cat #N3040) was thawed and equilibrated to room temperature before the experiment. 30 μL of Nano-Glo Hibit Lytic Detection reagent was added into each well to be detected. The plates were held at room temperature for 10 min followed by reading on EnSpire.
Data analysis: The remaining activity was calculated following the formula: Remaining Activity (%)=100%×(Lumsample−LumNC)/(LumPC−LumNC). Calculate the IC50 by fitting the curve using Xlfit (v5.3.1.3), equation 201: fit=(A+((B−A)/(1+((x/C)^D)))); A: Botton; B: Top; C: IC50; and D: Slope.
The letter codes for STAT3 DC50 include: A (<0.01 μM), B (0.01-0.1 μM), C (0.1-1.0 μM), and D (>1.0 μM).
`Cn1c(=O)n(C2CCC(=O)NC2=O)c2ccc(C[C@H]3CC[C@@H](CCN4CC[C@H]5CC[C@@H](C(=O)N[C@@H](CCC(N)=O)C(=O)NCc6ccc(S(C)(=O)=O)cc6)N5C(=O)[C@@H](NC(=O)c5cc6cc(C(=O)P(=O)(O)O)ccc6[nH]5)C4)CC3)cc21` (stereo partly drawn) [I-52, 2-[[(5S,8S,10aR)-8-[[(1S)-3-carbamoyl-1-[[(4-methanesulfonylphenyl)methyl]carbamoyl]propyl]carbamoyl]-6-oxo-3-[2-[(1s,4s)-4-[[1-(2,6-dioxopiperidin-3-yl)-3-methyl-2-oxo-1,3-benzodiazol-5-yl]methyl]cyclohexyl]ethyl]-octahydropyrrolo[1,2-a][1,5]diazocin-5-yl]carbamoyl]-1H-indole-5-carbonylphosphonic acid] gave a DC50 of 100 to 1000 nM.
Work on `Cc1ncsc1-c1ccc([C@H](C)NC(=O)[C@@H]2C[C@@H](O)CN2C(=O)[C@@H](NC(=O)CCCc2cccc(OC[C@H](CCC(N)=O)NC(=O)[C@@H]3CC[C@@H]4CCN(C(=O)C(C)C)C[C@H](NC(=O)c5cc6cc(C(=O)P(=O)(O)O)ccc6[nH]5)C(=O)N43)c2Cl)C(C)(C)C)cc1` [I-54] yielded a DC50 of less than 10 nM.
In the case of `Cc1ncsc1-c1ccc([C@H](C)NC(=O)[C@@H]2C[C@@H](O)CN2C(=O)[C@@H](NC(=O)CC2CCC(c3cccc(OC[C@H](CCC(N)=O)NC(=O)[C@@H]4Cc5cccc6c5N4C(=O)[C@@H](NC(=O)c4cc5cc(C(=O)P(=O)(O)O)ccc5[nH]4)CC6)c3Cl)CC2)C(C)(C)C)cc1` (stereo partly drawn) [I-55], the DC50 is reported as 10 to 100 nM.
In the case of `Cc1ncsc1-c1ccc([C@H](C)NC(=O)[C@@H]2C[C@@H](O)CN2C(=O)[C@@H](NC(=O)CC2CCC(c3cccc(OC[C@H](CCC(N)=O)NC(=O)[C@@H]4Cc5cccc6c5N4C(=O)[C@@H](NC(=O)c4cc5cc(C(=O)P(=O)(O)O)ccc5[nH]4)CC6)c3Cl)CC2)C(C)(C)C)cc1` (stereo partly drawn) [I-56], the DC50 is reported as 100 to 1000 nM.
Molecule `Cn1c(=O)n(C2CCC(=O)NC2=O)c2ccc(NCCCCCc3cc4c5c(c3)C[C@@H](C(=O)N[C@@H](CCC(N)=O)C(=O)NCc3ccc(S(C)(=O)=O)cc3)N5C(=O)[C@@H](NC(=O)c3cc5cc(C(=O)P(=O)(O)O)ccc5[nH]3)CC4)cc21` (stereo partly drawn) [I-57, 2-[[(2S,11S)-2-[[(1S)-3-carbamoyl-1-[[(4-methanesulfonylphenyl)methyl]carbamoyl]propyl]carbamoyl]-6-(5-[[1-(2,6-dioxopiperidin-3-yl)-3-methyl-2-oxo-1,3-benzodiazol-5-yl]amino]pentyl)-12-oxo-1-azatricyclo[6.4.1.0^[4,13]]trideca-4(13),5,7-trien-11-yl]carbamoyl]-1H-indole-5-carbonylphosphonic acid] has a DC50 of 10 to 100 nM.
`Cc1ncsc1-c1ccc([C@H](C)NC(=O)[C@@H]2C[C@@H](O)CN2C(=O)[C@@H](NC(=O)CCCc2cccc(OC[C@H](CCC(N)=O)NC(=O)[C@@H]3CCCN3C(=O)[C@H](C)NC(=O)c3cc4cc(C(=O)P(=O)(O)O)ccc4[nH]3)c2Cl)C(C)(C)C)cc1` [I-58] showed a DC50 of 10 to 100 nM.
In the case of `CC(C)c1ccc(CNC(=O)[C@H](CCC(N)=O)NC(=O)[C@@H]2CC[C@@H]3CCN(C(=O)[C@H]4CC[C@@H](CCc5ccc6c(c5)n(C)c(=O)n6C5CCC(=O)NC5=O)CC4)C[C@H](NC(=O)c4cc5cc(C(=O)P(=O)(O)O)ccc5[nH]4)C(=O)N32)cc1` (stereo partly drawn) [I-59, (2-(((5S,8S,10aR)-8-(((S)-5-amino-1-((4-isopropylbenzyl)amino)-1,5-dioxopentan-2-yl)carbamoyl)-3-((1r,4R)-4-(2-(1-(2,6-dioxopiperidin-3-yl)-3-methyl-2-oxo-2,3-dihydro-1H-benzo[d]imidazol-5-yl)ethyl)cyclohexane-1-carbonyl)-6-oxodecahydropyrrolo[1,2-a][1,5]diazocin-5-yl)carbamoyl)-1H-indole-5-carbonyl)phosphonic acid], the DC50 is reported as 10 to 100 nM.
Work on `Cc1ncsc1-c1ccc([C@H](C)NC(=O)[C@@H]2C[C@@H](O)CN2C(=O)[C@@H](NC(=O)CCCc2cccc(OC[C@H](CCC(N)=O)NC(=O)[C@@H]3CC[C@@H]4CCN(C(=O)c5cccc(F)c5)C[C@H](NC(=O)c5cc6cc(C(=O)P(=O)(O)O)ccc6[nH]5)C(=O)N43)c2Cl)C(C)(C)C)cc1` [I-60] yielded a DC50 of 10 to 100 nM.
For `Cc1ncsc1-c1ccc([C@H](C)NC(=O)[C@@H]2C[C@@H](O)CN2C(=O)[C@@H](NC(=O)CCCc2cccc(OC[C@H](CCC(N)=O)NC(=O)[C@@H]3CCCN3C(=O)[C@H](Cc3c[nH]cn3)NC(=O)c3cc4cc(C(=O)P(=O)(O)O)ccc4[nH]3)c2Cl)C(C)(C)C)cc1` [I-61], the DC50 was 10 to 100 nM.
`CCS(=O)(=O)c1ccc(CNC(=O)[C@H](CCC(N)=O)NC(=O)[C@@H]2CC[C@@H]3CCN(C(=O)C[C@H]4CC[C@@H](Cc5ccc6c(c5)n(C)c(=O)n6C5CCC(=O)NC5=O)CC4)C[C@H](NC(=O)c4cc5cc(C(=O)P(=O)(O)O)ccc5[nH]4)C(=O)N32)cc1` (stereo partly drawn) [I-62] was tested, and the DC50 was 10 to 100 nM.
`Cc1ncsc1-c1ccc(CNC(=O)[C@@H]2C[C@@H](O)CN2C(=O)[C@@H](c2cc(OCCCc3cccc(OC[C@H](CCC(N)=O)NC(=O)[C@@H]4Cc5cccc6c5N4C(=O)[C@@H](NC(=O)c4cc5cc(C(=O)P(=O)(O)O)ccc5[nH]4)CC6)c3Cl)no2)C(C)C)cc1` [I-63] showed a DC50 of less than 10 nM.
`CN1C(=O)CCC(n2c(=O)n(C)c3cc(C[C@H]4CC[C@@H](CC(=O)N5CC[C@H]6CC[C@@H](C(=O)N[C@@H](CCC(N)=O)C(=O)NC(c7ccccc7)c7ccccc7)N6C(=O)[C@@H](NC(=O)c6cc7cc(C(=O)P(=O)(O)O)ccc7[nH]6)C5)CC4)ccc32)C1=O` (stereo partly drawn) [I-64] showed a DC50 greater than 1000 nM.
`C[C@H](NC(=O)[C@@H]1Cc2cc(CCCCCCc3ccc4c(c3)n(C)c(=O)n4C3CCC(=O)NC3=O)cc3c2N1C(=O)[C@@H](NC(=O)c1cc2cc(C(=O)P(=O)(O)O)ccc2[nH]1)CC3)C(=O)NCc1ccc(S(C)(=O)=O)cc1` (stereo partly drawn) [I-65, 2-[[(2S,11S)-6-[6-[1-(2,6-dioxopiperidin-3-yl)-3-methyl-2-oxo-1,3-benzodiazol-5-yl]hexyl]-2-[[(1S)-1-[[(4-methanesulfonylphenyl)methyl]carbamoyl]ethyl]carbamoyl]-12-oxo-1-azatricyclo[6.4.1.0^[4,13]]trideca-4(13),5,7-trien-11-yl]carbamoyl]-1H-indole-5-carbonylphosphonic acid] was tested, and the DC50 was greater than 1000 nM.
With `Cc1ncsc1-c1ccc([C@H](C)NC(=O)[C@@H]2C[C@@H](O)CN2C(=O)[C@@H](NC(=O)CCCc2cccc(OC[C@H](CCC(N)=O)NC(=O)[C@@H]3CC[C@@H]4CCN(C(=O)C(F)(F)F)C[C@H](NC(=O)c5cc6cc(C(=O)P(=O)(O)O)ccc6[nH]5)C(=O)N43)c2Cl)C(C)(C)C)cc1` [I-66] the DC50 was less than 10 nM.
For `Cn1c(=O)n(C2CCC(=O)NC2=O)c2ccc(C[C@H]3CC[C@@H](CC(=O)N4CC[C@H]5CC[C@@H](C(=O)N[C@@H](CCC(N)=O)COc6ccc(S(C)(=O)=O)cc6)N5C(=O)[C@@H](NC(=O)c5cc6cc(C(=O)P(=O)(O)O)ccc6[nH]5)C4)CC3)cc21` (stereo partly drawn) [I-67], the DC50 was 100 to 1000 nM.
With `Cn1c(=O)n(C2CCC(=O)NC2=O)c2ccc(CC[C@H]3CC[C@@H](C(=O)N4CC[C@H]5CC[C@@H](C(=O)N[C@@H](CCC(N)=O)C(=O)NCc6ccc(S(C)(=O)=O)cc6)N5C(=O)[C@@H](NC(=O)c5cc6cc(C(=O)P(=O)(O)O)ccc6[nH]5)C4)CC3)cc21` (stereo partly drawn) [I-68, 2-[[(5S,8S,10aR)-8-[[(1S)-3-carbamoyl-1-[[(4-methanesulfonylphenyl)methyl]carbamoyl]propyl]carbamoyl]-6-oxo-3-[(1r,4s)-4-[2-[1-(2,6-dioxopiperidin-3-yl)-3-methyl-2-oxo-1,3-benzodiazol-5-yl]ethyl]cyclohexanecarbonyl]-octahydropyrrolo[1,2-a][1,5]diazocin-5-yl]carbamoyl]-1H-indole-5-carbonylphosphonic acid] the DC50 was 10 to 100 nM.
Work on `CC(=O)N1CC[C@H]2CC[C@@H](C(=O)N[C@@H](CCC(N)=O)COc3cccc(CCCOc4cc([C@H](C(=O)N5C[C@H](O)C[C@H]5C(=O)NCc5ccc(-c6scnc6C)cc5)C(C)C)on4)c3Cl)N2C(=O)[C@@H](NC(=O)c2cc3cc(C(=O)P(=O)(O)O)ccc3[nH]2)C1` [I-69] yielded a DC50 of less than 10 nM.
For `CC(C)S(=O)(=O)c1ccc(CNC(=O)[C@H](CCC(N)=O)NC(=O)[C@@H]2CC[C@@H]3CCN(C(=O)C[C@H]4CC[C@@H](Cc5ccc6c(c5)n(C)c(=O)n6C5CCC(=O)NC5=O)CC4)C[C@H](NC(=O)c4cc5cc(C(=O)P(=O)(O)O)ccc5[nH]4)C(=O)N32)cc1` (stereo partly drawn) [I-70], the DC50 was 10 to 100 nM.
`Cc1ncsc1-c1ccc(C2(NC(=O)[C@@H]3C[C@@H](O)CN3C(=O)[C@@H](NC(=O)CCCc3cccc(OC[C@H](CCC(N)=O)NC(=O)[C@@H]4Cc5cccc6c5N4C(=O)[C@@H](NC(=O)c4cc5cc(C(=O)P(=O)(O)O)ccc5[nH]4)CC6)c3Cl)C(C)(C)C)CC2)cc1` [I-71] was tested, and the DC50 was 10 to 100 nM.
Molecule `CC(=O)N1CC[C@H]2CC[C@@H](C(=O)N[C@@H](CCC(N)=O)COc3cccc(CCCC(=O)N[C@H](C(=O)N4C[C@H](O)C[C@H]4C(=O)NC4(c5ccc(-c6scnc6C)cc5)CC4)C(C)(C)C)c3Cl)N2C(=O)[C@@H](NC(=O)c2cc3cc(C(=O)P(=O)(O)O)ccc3[nH]2)C1` [I-72] has a DC50 of 10 to 100 nM.
For `Cn1c(=O)n(C2CCC(=O)NC2=O)c2ccc(CC[C@H]3CC[C@H](C(=O)N4CC[C@H]5CC[C@@H](C(=O)N[C@@H](CCC(N)=O)C(=O)NCc6ccc(S(C)(=O)=O)cc6)N5C(=O)[C@@H](NC(=O)c5cc6cc(C(=O)P(=O)(O)O)ccc6[nH]5)C4)CC3)cc21` (stereo partly drawn) [I-73], the DC50 was 10 to 100 nM.
